The record followed here is US12617831B2 (UNIVERSITE D'ANGERS, priority 2019, dated 2026).

Molecules are shown by their SMILES. Where two headings read alike, the source gives them in different places.

The subject of assay [1] is ovariectomy-induced bone loss in mice. The experiment in a line: Trabecular bone strength, compression test of second lumbar vertebra, ovariectomized mice. Format: in vivo. Particulars: OVX mice, vs vehicle; GL-0001 25, GL-0007 25 and 100 nmoles/kg/day; zoledronic acid once 100 μg/kg. Here is the method: At 16 weeks of age, ALZET osmotic pumps (model number 2006, Durect Corp., Cupertino, CA) filled with the below saline or peptide were implanted subcutaneously between the two scapula under general anesthesia in 32 mice. Successful filling of pumps was verified by weighting the pump before and after filling. At 20 weeks of age, ALZET osmotic pumps were replaced by similar pumps to ensure delivery for four new weeks. […] This dose and regimen of zoledronic acid was equivalent to the 5 mg infusion approved for the treatment of post-menopausal osteoporosis in humans. Compression experiments were performed on L2. Briefly, vertebral bodies were carefully dissected and glued with cyanoacrylate glue on a Plexiglas plate and then incubated in saline at 4° C. until use the next day. L2 vertebral bodies were compressed to failure at a displacement rate of 1 mm/min using an Instron 5942 device. Load and displacement of the upper plateau were recorded at a sampling rate of 100 Hz. Maximum load and stiffness were computerized from load-displacement curves.

For assay [2], the system named is Murine Raw 264.7 cells. Format: cell-based. Particulars: for IC50 computed from curve fitting of osteoclastogenesis vs. peptide concentration: Raw 264.7, RANKL 10 ng/ml, 110 h, * values determined from previous experiments. Here is the method:
Murine Raw 264.7 cells were grown and expanded in propagation medium containing Dulbecco's modified Eagle medium (DMEM-Gibco) supplemented with 10% fetal bovine serum (FBS-Lonza), 100 U/mL penicillin and 100 μg/mL streptomycin (Gibco) in a humidified atmosphere enriched with 5% CO2 at 37° C. The first passage after thawing Raw 264.7 cells was considered as passage 1. Cells were used up to passage 8. […] Cultures were rinsed three times in distilled water and the residual activity was inhibited by 4% NaF (Sigma-Aldrich) for 30 min. Cells were then rinsed in distilled water and allowed to dry. TRAcP positive cells, with more than three nuclei, were identified as osteoclasts. The number of newly generated osteoclasts was assessed using light microscopic examination by a histologist that was blinded to the treatment intervention. […] For each concentration of peptide, the mean, SD and number of events were computed.

The test system of assay [3] is Murine MC3T3-E1 cells. Put plainly: Collagen maturity assay in MC3T3-E1 cultures (Example 2). Format: cell-based. The note with it: compared with [D-Ala^2]GIP1-30NH2 and [Gly^2]GLP-2. In short, it runs like this:
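Confluent MC3T3-E1 cells were differentiated in αMEM with 5% FBS, 5% calf serum and 50 µg/ml ascorbic acid plus analogues at various concentrations, with medium renewed every two days. Matrix was ethanol-fixed and dried on BaF2. FTIR microspectroscopy in transmission mode (4 cm⁻¹, 32 scans) gave ≥20 spectra per condition.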

Assay [4] has as its system MC3T3-E1 subclone 4 cells. Format: cell-based, murine. Here is the method: Briefly, MC3T3-E1 subclone 4 cells have been grown and propagated in α-MEM supplemented with 5% fetal bovine serum (FBS), 5% bovine calf serum (BCS), 100 U/mL penicillin, and 100 μg/mL streptomycin in a humidified atmosphere enriched with 5% CO2 at 37° C. […] This day was considered as day 1. The differentiation medium was replenished every two days. […] Cultures were rinsed at least six times with milliQ water, fixed in absolute ethanol, scrapped off the culture dish and transferred onto BaF2 windows where they were air-dried. Integrity of the collagen extracellular matrix was verified by comparing the obtained Fourier transform infrared spectrum with those of commercial collagen. Spectral analysis was performed using a Bruker Vertex 70 spectrometer (Bruker optics, Ettlingen, Germany) interfaced with a Bruker Hyperion 3000 infrared microscope equipped with a standard single element Mercury Cadmium Telluride (MCT) detector. Calibration of the infrared spectrometer is done once a week with a polystyrene film standard (Bruker optics). Infrared spectra were recorded at a resolution of 4 cm^-1, with an average of 32 scans in transmission mode. Background spectral images were collected under identical conditions from the same BaF2 windows at the beginning and end of each experiment to ensure instrument stability. At least 5 spectra were acquired for each condition and analyzed with a lab-made routine script (version 2.0) in Matlab R2016b (The Mathworks, Natick, MA). […] For GIP and GLP-2 dataset, the inventors used the collagen maturity data previously acquired and analyzed. First of all, collagen maturity obtained in control cultures, i.e. in the absence of double GIP/GLP-2 analogues, were averaged and subtracted to the all dataset. […] For each concentration of peptide, the mean, SD and number of events were computed. […] The GraphPad Prism analysis consisted in: […] Statistical Analysis […] Data are represented as mean±SD.

The term EC50 denotes the midpoint of the concentration-response curve. In the case of `CC[C@H](C)[C@H](NC(=O)[C@H](CO)NC(=O)[C@H](CCSC)NC(=O)[C@H](CC(=O)O)NC(=O)[C@H](CO)NC(=O)CNC(=O)[C@H](Cc1ccccc1)NC(=O)[C@H](CO)NC(=O)CNC(=O)[C@H](CCC(=O)O)NC(=O)CNC(=O)[C@@H](N)Cc1c[nH]cn1)C(=O)N[C@@H](C)C(=O)N[C@@H](CC(C)C)C(=O)N[C@@H](CC(=O)O)C(=O)N[C@@H](CCCCN)C(=O)N[C@@H](CC(C)C)C(=O)N[C@@H](C)C(=O)N[C@@H](C)C(=O)N[C@@H](CCCNC(=N)N)C(=O)N[C@@H](CC(=O)O)C(=O)N[C@@H](Cc1ccccc1)C(=O)N[C@H](C(=O)N[C@@H](CC(N)=O)C(=O)N[C@@H](Cc1c[nH]c2ccccc12)C(=O)N[C@@H](CC(C)C)C(=O)N[C@@H](CC(C)C)C(=O)N[C@@H](CCC(N)=O)C(=O)N[C@H](C(=O)N[C@@H](CCCCN)C(=O)N[C@H](C(=O)N[C@H](C(=O)N[C@@H](CC(=O)O)C(=O)O)[C@@H](C)O)[C@@H](C)CC)[C@@H](C)O)C(C)C` [GL-0001], the “bone stiffness, compression of second lumbar vertebra” value in assay [1] was “significantly reduced”. Further, in assay [2], the IC50 computed from curve fitting of osteoclastogenesis vs. peptide concentration was 0.0142 nM. The 50% effective concentration (EC50) is 0.0142 nM in assay [2] (Raw 264.7, * data obtained in previous experiments, read-out: EC50 of inhibitory effect on osteoclastogenesis) and 0.0262 ± 0.0171 nM in assay [4] (MC3T3-E1, day 14, mean ± SD of 5 individual experiments, read-out: EC50 for dose-effect curves on collagen maturity). Moreover, in assay [3], the “potency versus native peptides, based on osteoclast formation in vitro and collagen maturity in vitro” value is listed as “better potency than each native peptide”. The “Emax for dose-effect curves on collagen maturity” value in assay [4] (MC3T3-E1, day 14) is 207.0%.
For `CC[C@H](C)[C@H](NC(=O)[C@H](CO)NC(=O)[C@H](Cc1ccccc1)NC(=O)[C@H](CC(=O)O)NC(=O)[C@H](CO)NC(=O)CNC(=O)[C@H](Cc1ccccc1)NC(=O)[C@H](CO)NC(=O)CNC(=O)[C@H](CCC(=O)O)NC(=O)CNC(=O)[C@@H](N)Cc1c[nH]cn1)C(=O)N[C@@H](C)C(=O)N[C@@H](CC(C)C)C(=O)N[C@@H](CC(=O)O)C(=O)N[C@@H](CCCCN)C(=O)N[C@@H](CC(C)C)C(=O)N[C@@H](C)C(=O)N[C@@H](C)C(=O)N[C@@H](CCCNC(=N)N)C(=O)N[C@@H](CC(=O)O)C(=O)N[C@@H](Cc1ccccc1)C(=O)N[C@H](C(=O)N[C@@H](CC(N)=O)C(=O)N[C@@H](Cc1c[nH]c2ccccc12)C(=O)N[C@@H](CC(C)C)C(=O)N[C@@H](CC(C)C)C(=O)N[C@@H](CCC(N)=O)C(=O)N[C@H](C(=O)N[C@@H](CCCCN)C(N)=O)[C@@H](C)O)C(C)C` [GL-0007], the “bone stiffness, compression of second lumbar vertebra” value in assay [1] was “significantly reduced”. Further, in assay [2], the concentration giving a half-maximal response (EC50) is 0.0062 nM and the IC50 computed from curve fitting of osteoclastogenesis vs. peptide concentration was determined as 0.0062 nM. Moreover, the “potency versus native peptides, based on osteoclast formation in vitro and collagen maturity in vitro” value in assay [3] is “better potency than each native peptide”. This compound returned an EC50 in assay [4] of 0.0259 ± 0.0145 nM. The “Emax for dose-effect curves on collagen maturity” value in assay [4] (MC3T3-E1, day 14) is given as 232.3%.
